# Legend:
# [1] = Cytotoxicity in mock-infected MT-4 cell cultures, MTT method; conditions: human, mock-infected MT-4 cells
# WT HIV-1 RT = WT HIV-1 RT (Human immunodeficiency virus type 1 group M subtype B, UniProt P03366); assay: Recombinant HIV-1 RT inhibitory assay; assay type: biochemical
# [2] = system: HIV-1 E138K mutant strain; assay: microbe, parasite or virus in culture; assay type: cell-based; conditions: for SI E138K: CC50/EC50; for EC50: Human immunodeficiency virus 1, MT4, read-out: EC50 E138K; for RF E138K: ratio of EC50 (resistant viral strain)/EC50 (wild-type viral strain)
# [3] = system: HIV-1 Y181C mutant strain; assay: microbe, parasite or virus in culture; assay type: cell-based; conditions: for SI Y181C: CC50/EC50; for EC50: Human immunodeficiency virus 1, MT4, read-out: EC50 Y181C; for RF Y181C: ratio of EC50 (resistant viral strain)/EC50 (wild-type viral strain)
# WT HIV-1 (IIIB) = assay: microbe, parasite or virus in culture; assay type: cell-based; conditions: for EC50: Human immunodeficiency virus 1, IIIB, MT4, read-out: EC50 IIIB; for SI IIIB: ratio of CC50/EC50
# [4] = system: HIV-1 L100I mutant strain; assay: microbe, parasite or virus in culture; assay type: cell-based; conditions: for SI L100I: CC50/EC50; for EC50: Human immunodeficiency virus 1, MT4, read-out: EC50 L100I; for RF L100I: ratio of EC50 (resistant viral strain)/EC50 (wild-type viral strain)
# HIV-2 strain (ROD) = assay: Anti-HIV-2; assay type: cell-based; conditions: for EC50: Human immunodeficiency virus 2, MT4, read-out: EC50 ROD
# [5] = system: HIV-1 RES056 (K103N + Y181C) double-mutant strain; assay: microbe, parasite or virus in culture; assay type: cell-based; conditions: for SI RES056: CC50/EC50; for EC50: Human immunodeficiency virus 1, MT4, read-out: EC50 RES056; for RF RES056: ratio of EC50 (resistant viral strain)/EC50 (wild-type viral strain)
# [6] = system: HIV-1 F227L + V106A double-mutant strain; assay: microbe, parasite or virus in culture; assay type: cell-based; conditions: for SI F227L + V106A: CC50/EC50; for EC50: Human immunodeficiency virus 1, MT4, read-out: EC50 F227L + V106A; for RF F227L + V106A: ratio of EC50 (resistant viral strain)/EC50 (wild-type viral strain)
# [7] = system: HIV-1 Y188L mutant strain; assay: microbe, parasite or virus in culture; assay type: cell-based; conditions: for SI Y188L: CC50/EC50; for EC50: Human immunodeficiency virus 1, MT4, read-out: EC50 Y188L; for RF Y188L: ratio of EC50 (resistant viral strain)/EC50 (wild-type viral strain)
# [8] = system: HIV-1 K103N mutant strain; assay: microbe, parasite or virus in culture; assay type: cell-based; conditions: for SI K103N: CC50/EC50; for EC50: Human immunodeficiency virus 1, MT4, read-out: EC50 K103N; for RF K103N: ratio of EC50 (resistant viral strain)/EC50 (wild-type viral strain)
structure (smiles),measurement,setting,value
"Cc1cc(-c2cccs2)cc(C)c1Oc1nc(NC2CCN(Cc3ccc(C(N)=O)cc3)CC2)nc2ccsc12 [Compound 16, 4-((4-((4-(2,6-Dimethyl-4-(thiophen-2-yl)phenoxy)thieno[3,2-d]pyrimidin-2-yl)amino)piperidin-1-yl)methyl)benzamide]",CC50 at 5 days,[1],≥ 20500 nM
same,IC50,WT HIV-1 RT,595 ± 44 nM
same,SI E138K,[2],≥ 31
same,EC50,[2],662 ± 58.4 nM
same,RF E138K,[2],3.3
same,SI Y181C,[3],≥ 28
same,EC50,[3],731 ± 198 nM
same,RF Y181C,[3],3.6
same,EC50,WT HIV-1 (IIIB),203 ± 51.5 nM
same,SI IIIB,WT HIV-1 (IIIB),≥101
same,SI L100I,[4],≥ 28
same,EC50,[4],731 ± 274 nM
same,RF L100I,[4],3.6
same,EC50,HIV-2 strain (ROD),> 20500 nM
same,SI RES056,[5],≥ 2
same,EC50,[5],10000 nM
same,RF RES056,[5],49.2
same,SI F227L + V106A,[6],≥ 19
same,EC50,[6],1090 ± 226 nM
same,RF F227L + V106A,[6],5.4
same,SI Y188L,[7],≥ 33
same,EC50,[7],619 ± 3.59 nM
same,RF Y188L,[7],3.0
same,SI K103N,[8],≥ 111
same,EC50,[8],184 ± 90.2 nM
same,RF K103N,[8],0.9
"Cc1cc(-c2ccsc2)cc(C)c1Oc1nc(NC2CCN(Cc3ccc(C(N)=O)cc3)CC2)nc2ccsc12 [Compound 18, 4-((4-((4-(2,6-Dimethyl-4-(thiophen-3-yl)phenoxy)thieno[3,2-d]pyrimidin-2-yl)amino)piperidin-1-yl)methyl)benzamide]",CC50 at 5 days,[1],17000 ± 12900 nM
same,SI E138K,[2],23
same,EC50,[2],739 ± 318 nM
same,RF E138K,[2],3.1
same,SI Y181C,[3],23
same,EC50,[3],741 ± 154 nM
same,RF Y181C,[3],3.1
same,EC50,WT HIV-1 (IIIB),240 ± 94.3 nM
same,SI IIIB,WT HIV-1 (IIIB),71
same,SI L100I,[4],18
same,EC50,[4],925 ± 286 nM
same,RF L100I,[4],3.8
same,EC50,HIV-2 strain (ROD),> 17000 nM
same,SI ROD,HIV-2 strain (ROD); ratio of CC50/EC50,<1
same,SI RES056,[5],4
same,EC50,[5],4520 ± 1450 nM
same,RF RES056,[5],18.8
same,SI F227L + V106A,[6],20
same,EC50,[6],854 ± 186 nM
same,RF F227L + V106A,[6],3.6
same,SI Y188L,[7],27
same,EC50,[7],628 ± 49.6 nM
same,RF Y188L,[7],2.6
same,SI K103N,[8],99
same,EC50,[8],171 ± 56.9 nM
same,RF K103N,[8],0.7
"O=C1Nc2ccc(Cl)cc2[C@@](C#CC2CC2)(C(F)(F)F)O1 [EFV, efavirenz, reference compound]",CC50 at 5 days,[1],> 6330 nM
same,EC50,[3],6.33 ± 1.06 nM
same,EC50,WT HIV-1 (IIIB),5.25 ± 1.98 nM
same,EC50,[4],46.5 ± 9.11 nM
same,EC50,HIV-2 strain (ROD),> 5330 nM
same,EC50,[6],268 ± 48.7 nM
same,EC50,[7],306 ± 53.9 nM
same,EC50,[8],111 ± 35.4 nM
"Cc1cc(C#N)cc(C)c1Oc1nc(Nc2ccc(C#N)cc2)nc(N)c1Br [ETR, Etravirine, reference compound]",CC50 at 5 days,[1],> 4590 nM
same,EC50,[2],8.07 ± 2.52 nM
same,RF E138K,[2],1.6
same,EC50,[3],12.2 ± 2.63 nM
same,RF Y181C,[3],2.4
same,EC50,WT HIV-1 (IIIB),5.03 ± 1.68 nM
same,EC50,[4],6.35 ± 1.77 nM
same,RF L100I,[4],1.3
same,EC50,HIV-2 strain (ROD),> 4590 nM
same,EC50,[5],42.5 ± 15.1 nM
same,RF RES056,[5],8.4
same,EC50,[6],14.2 ± 5.14 nM
same,RF F227L + V106A,[6],2.8
same,EC50,[7],17.3 ± 5.53 nM
same,RF Y188L,[7],3.5
same,EC50,[8],3.13 ± 0.42 nM
same,RF K103N,[8],0.6
"Cc1ccnc2c1NC(=O)c1cccnc1N2C1CC1 [NVP, Nevirapine, reference compound]",CC50 at 5 days,[1],> 9510 nM
same,EC50,[2],115 ± 24.5 nM
same,RF E138K,[2],0.6
same,EC50,[3],> 9510 nM
same,RF Y181C,[3],NA (>51.1)
same,EC50,WT HIV-1 (IIIB),186 ± 59 nM
same,EC50,[4],1400 ± 828 nM
same,RF L100I,[4],7.5
same,EC50,HIV-2 strain (ROD),> 9510 nM
same,EC50,[5],> 9510 nM
same,RF RES056,[5],NA (>51.1)
same,EC50,[6],> 9510 nM
same,RF F227L + V106A,[6],NA (>51.1)
same,EC50,[7],> 9510 nM
same,RF Y188L,[7],NA (>51)
same,EC50,[8],7820 ± 556 nM
same,RF K103N,[8],42

# Source: paper PMC7280082 (Acta Pharmaceutica Sinica. B, 2019)
